Target: T1, Human Recombinant Matriptase 2 (Homo sapiens, UniProt Q8IU80)
T1 construct: purchased Enzo Life Sciences (an in-house preparation was also used) ALX-201-752-1
T1 sequence (Q8IU80 1-811): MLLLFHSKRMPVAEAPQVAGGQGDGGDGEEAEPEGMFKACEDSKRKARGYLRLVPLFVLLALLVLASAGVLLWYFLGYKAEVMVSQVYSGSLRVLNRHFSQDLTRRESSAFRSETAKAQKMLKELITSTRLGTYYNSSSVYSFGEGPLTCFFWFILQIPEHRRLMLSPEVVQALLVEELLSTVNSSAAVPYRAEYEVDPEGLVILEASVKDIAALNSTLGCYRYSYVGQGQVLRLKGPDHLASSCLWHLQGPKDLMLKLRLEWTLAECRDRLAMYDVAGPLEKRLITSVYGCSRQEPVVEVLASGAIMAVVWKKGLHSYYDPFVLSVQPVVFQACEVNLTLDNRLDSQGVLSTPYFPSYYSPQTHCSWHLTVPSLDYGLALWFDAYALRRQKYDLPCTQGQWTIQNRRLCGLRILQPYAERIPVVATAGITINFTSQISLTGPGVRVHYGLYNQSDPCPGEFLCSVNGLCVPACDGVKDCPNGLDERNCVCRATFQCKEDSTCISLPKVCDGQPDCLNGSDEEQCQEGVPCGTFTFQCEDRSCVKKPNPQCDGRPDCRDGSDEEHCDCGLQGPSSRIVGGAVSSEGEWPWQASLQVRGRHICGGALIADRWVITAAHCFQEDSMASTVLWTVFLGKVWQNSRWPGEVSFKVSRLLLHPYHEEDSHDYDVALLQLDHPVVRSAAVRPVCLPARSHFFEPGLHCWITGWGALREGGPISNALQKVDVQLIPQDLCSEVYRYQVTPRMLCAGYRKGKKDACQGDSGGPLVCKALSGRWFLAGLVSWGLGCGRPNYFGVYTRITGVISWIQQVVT
Experiment: Matriptase 2 fluorescence based inhibition assay, Method A (100 mM TRIS pH 9, 1 mg/mL BSA)
Type: biochemical
Settings: 1 uM compound; Assay Used = A; read-out: Mar-2 % inhibition at 1 uM
Outline: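 At 25° C in 100 mM TRIS pH 9 with 1 mg/mL BSA and 1% DMSO, compounds were preincubated 30 min with 7 nM commercial or 15 nM in-house protein before adding 100 μM Boc-Gln-Ala-Arg-7-amido-4-methyl coumarin. Fluorescence at 360/480 nm after 60 min; single points at 1 and 10 μM, IC50 by variable-slope nonlinear regression.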

| SMILES | inhibition at 1 µM |
| --- | --- |
| COc1ccc2cc(Cn3c(C(=O)N[C@H]4CC[C@H](N)CC4)cc4ccc(C(=N)N)cc43)ccc2c1 [Compound I-408] | 50 to 75% |
| COc1ccc2cc(Cn3c(C(=O)N[C@H]4CC[C@H](N)CC4)cc4ccc(/C(N)=N\O)cc43)ccc2c1 [Compound I-401] | 0 to 25% |

Same assay, conditions: 1 uM; Assay Used A; read-out: Mar-2 % inhibition at 1 uM

| SMILES | inhibition at 1 µM |
| --- | --- |
| N=C(N)c1ccc2cc(C(=O)Nc3cc(F)c(F)c(F)c3)n(Cc3ccc(C(N)=O)cc3)c2c1 [Compound I-89] | 0 to 25% |
| Cc1ccc(NC(=O)c2cc3ccc(C(=N)N)cc3n2Cc2ccc(C(N)=O)cc2)nc1 [Compound I-171] | 0 to 25% |
| N=C(NC(=O)Oc1ccccc1)c1ccc2cc(C(=O)Nc3cccc(N4CCCC4)c3)n(Cc3ccc(C(N)=O)cc3)c2c1 [Compound I-148] | 0 to 25% |
| CCc1ccc(-c2cccc(CCn3c(C(=O)N[C@H]4CC[C@H](N)CC4)cc4ccc(C(=N)N)cc43)c2)cc1 [Compound I-35] | 25 to 50% |
| N=C(N)c1ccc2cc(C(=O)NCC3CCOCC3)n(Cc3ccc(C(N)=O)cc3)c2c1 [Compound I-192] | 0 to 25% |
| COc1ccc(CCn2c(C(=O)N[C@H]3CC[C@H](N)CC3)cc3ccc(C(=N)N)cc32)cc1 [Compound I-32] | 25 to 50% |
| N=C(N)c1ccc2cc(C(=O)Nc3cccc4c3CCC4)n(Cc3ccc(C(N)=O)cc3)c2c1 [Compound I-91] | 0 to 25% |
| CCOC(=O)NC(=N)c1ccc2cc(C(=O)Nc3cccc(N4CCCC4)c3)n(Cc3ccc(C(N)=O)cc3)c2c1 [Compound I-120] | 0 to 25% |
| N=C(N)c1ccc2cc(C(=O)Nc3cccc(-n4cccn4)n3)n(Cc3ccc(C(N)=O)cc3)c2c1 [Compound I-181] | 0 to 25% |
| C#Cc1cccc(NC(=O)c2cc3ccc(C(=N)N)cc3n2Cc2ccc(C(N)=O)cc2)c1 [Compound I-138] | 0 to 25% |
| COC(=O)c1ccc(Cn2c(C(=O)N[C@H]3CC[C@H](N)CC3)cc3ccc(C(=N)N)cc32)cc1 [Compound I-21, Methyl 4-((2-(((1r,4r)-4-aminocyclohexyl)carbamoyl)-6-carbamimidoyl-1H-indol-1-yl)methyl)-benzoate] | 50 to 75% |
| N=C(N)c1ccc2cc(C(=O)Nc3cccc(F)c3)n(CCS(=O)(=O)c3ccccc3)c2c1 [Compound I-41] | 0 to 25% |
| CC(C)c1ccc(Cn2c(C(=O)NC3CCC(F)(F)CC3)cc3ccc(C(=N)N)cc32)cc1 [Compound I-15] | 0 to 25% |
| N=C(N)c1ccc2cc(C(=O)Nc3cc(F)cc(N4CCCC4)c3)n(Cc3ccc(C(N)=O)cc3)c2c1 [Compound I-108] | 0 to 25% |
| N=C(N)c1ccc2cc(C(=O)NCC3CCCCC3)n(Cc3ccc(C(F)(F)F)cc3)c2c1 [Compound I-10] | 25 to 50% |
| N=C(N)c1ccc2cc(C(=O)N[C@H]3CC[C@H](N)CC3)n(Cc3ccc(C(N)=O)cc3)c2c1 [Compound I-184] | 25 to 50% |
| N=C(N)c1ccc2cc(C(=O)NCc3cccc(C(F)(F)F)c3)n(Cc3ccc(C(N)=O)cc3)c2c1 [Compound I-83] | 0 to 25% |
| N=C(N)c1ccc2cc(C(=O)N[C@H]3CC[C@H](N)CC3)n(Cc3ccncc3)c2c1 [Compound I-19] | 25 to 50% |
| N=C(N)c1ccc2cc(C(=O)NC3CCC(F)(F)CC3)n(Cc3ccc(C(N)=O)cc3)c2c1 [Compound I-190] | 0 to 25% |
| N=C(N)c1ccc2cc(C(=O)Nc3cccc(C(N)=O)c3)n(CCc3ccccc3)c2c1 [Compound I-26] | 0 to 25% |
| C[C@H]1CCCN1c1cccc(NC(=O)c2cc3ccc(C(=N)N)cc3n2Cc2ccc(C(N)=O)cc2)c1 [Compound I-124] | 0 to 25% |
| N=C(N)c1ccc2cc(C(=O)Nc3ccc(-c4ccccc4)cc3)n(Cc3ccc(C(N)=O)cc3)c2c1 [Compound I-66] | 0 to 25% |
| N=C(N)c1ccc2cc(C(=O)Nc3ccc(C(=O)N4CC[C@H](F)C4)cc3)n(Cc3ccc(C(N)=O)cc3)c2c1 [Compound I-106] | 0 to 25% |
| N=C(N)c1ccc2cc(C(=O)Nc3ccc(N)nc3)n(Cc3ccc(C(F)(F)F)cc3)c2c1 [Compound I-1, N-(6-aminopyridin-3-yl)-6-carbamimidoyl-1-(4-(trifluoromethyl)benzyl)-1H-indole-2-carboxamide] | 0 to 25% |
| CCCCCCOC(=O)NC(=N)c1ccc2cc(C(=O)Nc3cccc(N4CCCC4)c3)n(Cc3ccc(C(N)=O)cc3)c2c1 [Compound I-159] | 0 to 25% |
| N=C(N)c1ccc2cc(C(=O)Nc3ccc(C(N)=O)cc3)n(CCc3ccccc3)c2c1 [Compound I-25] | 0 to 25% |

Same assay, conditions: at 1 uM; Assay Used = A; read-out: Mar-2 % inhibition at 1 uM

| SMILES | inhibition at 1 µM |
| --- | --- |
| N=C(N)c1ccc2c(Cl)c(C(=O)N[C@H]3CC[C@H](N)CC3)n(Cc3ccc(Oc4ccccc4)cc3)c2c1 [Compound I-251] | 25 to 50% |
| N=C(N)c1ccc2cc(C(=O)NC34CC5CC(CC(O)(C5)C3)C4)n(Cc3ccc(C(N)=O)cc3)c2c1 [Compound I-197] | 0 to 25% |
| N=C(N)c1ccc2cc(C(=O)N[C@H]3CC[C@H](N)CC3)n(Cc3cccc(C(=O)NCCC(=O)O)c3)c2c1 [Compound I-259, 3-(3-((2-(((1r,4r)-4-Amiocyclohexyl)carbamoyl)-6-carbamimidoyl-1H-indol-1-yl)methyl)benzamido)propanoic Acid] | 25 to 50% |
| N=C(N)c1ccc2cc(C(=O)N3CC[C@H](F)C3)n(Cc3ccc(-c4ccccc4)cc3)c2c1 [Compound I-309] | 0 to 25% |
| N=C(N)c1ccc2cc(C(=O)N[C@H]3CC[C@H](N)CC3)n(Cc3cccc(N)c3)c2c1 [Compound I-256, 1-(3-Aminobenzyl)-N-((1r,4r)-4-aminocyclohexyl)-6-carbamimidoyl-1H-indole-2-carboxamide] | 25 to 50% |
| N=C(N)c1ccc2cc(C(=O)NC3CC=CCC3)n(Cc3ccc(NC(=O)CCN)cc3)c2c1 (centres unmarked) [Compound I-264, 1-(4-(3-Aminopropanamido)benzyl)-6-carbamimidoyl-N-(cyclohex-3-en-1-yl)-1H-indole-2-carboxamide] | 0 to 25% |
| CC(C)c1ccc(Cn2c(C(=O)N3CCC(F)(F)CC3)cc3ccc(C(=N)N)cc32)cc1 [Compound I-296] | 0 to 25% |
| N=C(N)c1ccc2cc(C(=O)N3CCC(CCN)CC3)n(S(=O)(=O)c3ccc4ccccc4c3)c2c1 [Compound I-335] | 0 to 25% |
| CCOC(=O)CCCC1CCN(C(=O)c2cc3ccc(C(=N)N)cc3n2Cc2ccc(C(F)(F)F)cc2)CC1 [Compound I-281] | 0 to 25% |
| N=C(N)c1ccc2cc(C(=O)N[C@H]3CCc4ccccc43)n(Cc3ccc(C(N)=O)cc3)c2c1 [Compound I-202] | 0 to 25% |
| N=C(N)c1ccc2cc(C(=O)N3CCC(CCOCCO)CC3)n(Cc3ccc(C(F)(F)F)cc3)c2c1 [Compound I-287] | 0 to 25% |
| N=C(N)c1ccc2cc(C(=O)N3CCCC(F)(F)C3)n(Cc3ccc(C(N)=O)cc3)c2c1 [Compound I-328] | 0 to 25% |
| N=C(N)c1ccc2c(N)c(C(=O)N[C@H]3CC[C@H](NC(=O)O)CC3)n(Cc3ccc(Oc4ccccc4)cc3)c2c1 [Compound I-253, ((1r,4r)-4-(3-Amino-6-carbamimidoyl-1-(4-phenoxybenzyl)-1H-indole-2-carboxamido)-cyclohexyl) carbamic Acid] | 0 to 25% |
| N=C(N)c1ccc2cc(C(=O)N3CCC(CF)CC3)n(Cc3ccc(NC(=O)CCN)cc3)c2c1 [Compound I-377] | 0 to 25% |
| N=C(N)c1ccc2cc(C(=O)N[C@H]3c4ccccc4C[C@H]3O)n(Cc3ccc(C(N)=O)cc3)c2c1 [Compound I-204] | 0 to 25% |
| N=C(N)c1ccc2cc(C(=O)N3CCC(CCN)CC3)n(CCS(=O)(=O)c3ccccc3)c2c1 [Compound I-337] | 0 to 25% |
| N=C(N)c1ccc2cc(C(=O)N3CCC(CCN)CC3)n(CCc3ccccc3)c2c1 [Compound I-299] | 25 to 50% |
| N=C(N)c1ccc2cc(C(=O)N3CC[C@H](F)C3)n(Cc3ccc(NC(=O)CCN)cc3)c2c1 [Compound I-375] | 0 to 25% |
| CC1CCC(NC(=O)c2c(Cl)c3ccc(C(=N)N)cc3n2Cc2ccc(C(N)=O)cc2)CC1 (centres unmarked) [Compound I-214] | 0 to 25% |
| CNC(=O)c1ccc(Cn2c(C(=O)NCC3CCCCC3)cc3ccc(C(=N)N)cc32)cc1 [Compound I-215, 6-Carbamimidoyl-N-(cyclohexylmethyl)-1-(4-(methylcarbamoyl)benzyl)-1H-indole-2-carboxamide] | 0 to 25% |
| N=C(N)c1ccc2cc(C(=O)N3CCC(F)(F)C3)n(Cc3ccc(C(F)(F)F)cc3)c2c1 [Compound I-285] | 0 to 25% |
| COc1ccc(CCn2c(C(=O)N3CCC(CCN)CC3)cc3ccc(C(=N)N)cc32)cc1 [Compound I-302] | 25 to 50% |
